# Measurements from US20040186166A1, “Cannabinoid analogs as peroxisome proliferator activated nuclear receptor gamma activators” (priority 2002, published 2004).
# Experiments:
# COX-2 = molecular target: T1, COX-2 (Homo sapiens, UniProt P35354); details: Zurier et al. 1998; cited from earlier work
# T1 sequence (P35354 18-604): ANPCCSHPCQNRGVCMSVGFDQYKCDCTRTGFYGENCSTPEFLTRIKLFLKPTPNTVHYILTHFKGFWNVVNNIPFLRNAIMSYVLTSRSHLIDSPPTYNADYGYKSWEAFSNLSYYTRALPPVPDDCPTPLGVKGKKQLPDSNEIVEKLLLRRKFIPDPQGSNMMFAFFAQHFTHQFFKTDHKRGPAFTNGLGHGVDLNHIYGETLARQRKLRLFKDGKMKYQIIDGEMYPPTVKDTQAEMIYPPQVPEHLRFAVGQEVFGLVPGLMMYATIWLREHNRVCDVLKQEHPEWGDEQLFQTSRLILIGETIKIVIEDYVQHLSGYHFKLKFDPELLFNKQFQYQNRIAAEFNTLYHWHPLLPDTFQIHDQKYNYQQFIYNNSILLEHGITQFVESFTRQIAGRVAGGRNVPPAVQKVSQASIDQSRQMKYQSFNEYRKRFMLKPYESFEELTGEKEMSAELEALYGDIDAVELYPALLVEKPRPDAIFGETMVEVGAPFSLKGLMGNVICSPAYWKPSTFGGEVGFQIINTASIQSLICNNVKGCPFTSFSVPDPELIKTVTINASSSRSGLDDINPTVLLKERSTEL
# COX-1 = COX-1 (Homo sapiens, UniProt P23219); details: 0.25-25 μM, Zurier et al. 1998; cited from earlier work
# COX-1, sequence (P23219 24-599): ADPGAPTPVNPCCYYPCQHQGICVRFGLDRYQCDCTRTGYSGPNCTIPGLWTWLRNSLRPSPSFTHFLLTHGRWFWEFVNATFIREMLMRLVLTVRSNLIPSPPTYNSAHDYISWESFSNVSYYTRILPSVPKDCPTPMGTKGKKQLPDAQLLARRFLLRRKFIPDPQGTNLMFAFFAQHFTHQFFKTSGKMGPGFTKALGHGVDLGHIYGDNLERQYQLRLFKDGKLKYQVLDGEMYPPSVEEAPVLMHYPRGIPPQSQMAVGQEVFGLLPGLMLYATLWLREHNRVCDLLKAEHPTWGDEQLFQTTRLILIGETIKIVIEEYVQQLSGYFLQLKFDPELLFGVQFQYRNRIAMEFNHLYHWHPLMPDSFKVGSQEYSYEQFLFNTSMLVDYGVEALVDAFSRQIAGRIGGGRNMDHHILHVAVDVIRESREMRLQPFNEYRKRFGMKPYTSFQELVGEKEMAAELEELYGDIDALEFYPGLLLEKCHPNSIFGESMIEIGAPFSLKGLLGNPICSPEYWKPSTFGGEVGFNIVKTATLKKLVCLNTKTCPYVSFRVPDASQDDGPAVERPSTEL
# human IL-8 promoter = test: IL-8 promoter luciferase assay, HeLa cells with PPARγ ΔAF2 mutant; assay type: cell-based; details: cells transfected with PPARγ ΔAF2 mutant
# Procedure: For PPARγ activation assay, HEK293 cells were plated in 12-well cell culture plates and maintained in Dulbecco's modified Eagle's medium (DMEM) supplemented with 10% fetal bovine serum (FBS) at 37° C. under 5% CO2. Cells were changed to phenol red-free DMEM supplemented with 10% charcoal-stripped fetal bovine serum 3 hours before transfection by a standard calcium-phosphate precipitation method. Twelve hours after transfection, the cells were washed with phosphate-buffered saline (PBS) and fed again with fresh medium containing the indicated concentrations of compounds. After 36 hours, cells were harvested for β-galactosidase and luciferase activities as described previously (Li et al., Proc Natl Acad Sci USA 94:8479-84, 1997). The average normalized luciferase activity was determined via triplicate experiments. For IL-8 promoter assay, HeLa cells were maintained and transfected in the same way as described above. After transfection, cells were recovered for 4 hours before treatment with AJA, GW347845, or solvent. […]
# The IL-8 luciferase reporter controlled by the human IL-8 promoter (-97/-69) was cotransfected with mPPARγ or mPPARγ ΔAF2 mutant into HeLa cells. […] The involvement of PPARγ in regulating IL-8 promoter activity was determined by comparing the IL-8 promoter activity in the presence of wild type PPARγ or its ΔAF2 mutant. […]
# mPPARγ1 = molecular target: T2, mPPARγ1 (Mus musculus, UniProt P37238); test: Partial protease (trypsin) digestion assay, PPARγ; assay type: binding
# T2 construct: made in house; host or cells: reticulocyte lysate in vitro transcription/translation (Promega) from pCMX-mPPARγ1
# T2 sequence (P37238 1-475 isoform P37238-2): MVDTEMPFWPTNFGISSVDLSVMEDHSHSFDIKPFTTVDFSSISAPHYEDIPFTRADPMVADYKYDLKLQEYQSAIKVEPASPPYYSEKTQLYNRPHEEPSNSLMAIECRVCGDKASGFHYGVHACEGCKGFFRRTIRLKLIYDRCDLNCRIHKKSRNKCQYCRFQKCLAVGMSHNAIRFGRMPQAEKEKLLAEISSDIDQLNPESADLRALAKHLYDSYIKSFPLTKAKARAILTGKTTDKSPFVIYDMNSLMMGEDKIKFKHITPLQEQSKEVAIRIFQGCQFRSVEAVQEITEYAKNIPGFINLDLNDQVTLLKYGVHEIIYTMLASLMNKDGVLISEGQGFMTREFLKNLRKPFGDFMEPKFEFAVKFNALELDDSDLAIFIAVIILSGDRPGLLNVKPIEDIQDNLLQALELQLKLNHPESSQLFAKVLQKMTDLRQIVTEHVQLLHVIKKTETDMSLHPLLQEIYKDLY
# Procedure: Partial protease digestion was carried out as described by Leng et. al. (J Steroid Biochem Mol Biol 46:643-61, 1993). PPAR proteins were made by in vitro transcription/translation reactions in reticulocyte lysate according to the manufacture's instructions (Promega). AJA, GW347845, or vehicle alone was incubated with the 35S-labeled PPARs at room temperature for one hour before trypsin digestion. Reactions were stopped by boiling in SDS-containing sample buffer, and lysates were subjected to SDS-PAGE and autoradiography.
# To determine if AJA can bind to PPARγ, in vitro translated ^35S-labeled mPPARγ1 was incubated with AJA or a carrier vehicle before trypsin digestion. To test if AJA binds to PPARs, partial proteinase digestion assays were conducted as described previously (Leng et al., J Steroid Biochem Mol Biol 46:643-61, 1993). […] Such conformational change can be detected by limited proteinase digestion based on alteration of the accessibility of proteolytic sites on the surface of the receptors.
# The PPAR proteins were synthesized and labeled with ^35S-methionine in reticulocyte lysate and incubated with AJA, GW347845, or vehicle alone at room temperature for one hour before trypsin digestion. […] The proteolytic patterns of PPAR proteins were then analyzed by SDS-PAGE and autoradiography, and compared with vehicle-treated control samples. […]
smiles,measurement,setting,value
"CCCCCCC(C)(C)c1cc(O)c2c(c1)OC(C)(C)[C@@H]1CC=C(C(=O)O)C[C@@H]21 [AJA, dimethylheptyl-THC-11-oic acid]",concentration range suppressing COX-2 activity,COX-2,1 to 10 µM
same,effect on COX-1 activity,COX-1,no effect
same,effect on IL-8 promoter activity,human IL-8 promoter,no effect
same,trypsin-resistant PPARγ fragments (protection from trypsin digestion),"mPPARγ1; 20 μM AJA, 30 μg/ml trypsin, 30 or 60 min",Two prominent trypsin-resistant fragments of 30 and 24 kDa
same,"proteinase-resistant PPARγ fragments, concentration dependence","mPPARγ1; 2, 20 and 100 μM AJA",proteinase-resistant PPARγ fragments were observed
